Target: T1, human PKCθ full length enzyme (Homo sapiens, UniProt Q04759)
T1 construct: human PKCθ full length enzyme (Panvera Cat# P2996); purchased Panvera P2996
Experiment: PKCθ IMAP assay (fluorescence polarization)
Type: biochemical
Details: human PKCθ full length enzyme, IMAP; average value; read-out: IC50 PKCθ IMAP

T1 sequence (Q04759 whole entry): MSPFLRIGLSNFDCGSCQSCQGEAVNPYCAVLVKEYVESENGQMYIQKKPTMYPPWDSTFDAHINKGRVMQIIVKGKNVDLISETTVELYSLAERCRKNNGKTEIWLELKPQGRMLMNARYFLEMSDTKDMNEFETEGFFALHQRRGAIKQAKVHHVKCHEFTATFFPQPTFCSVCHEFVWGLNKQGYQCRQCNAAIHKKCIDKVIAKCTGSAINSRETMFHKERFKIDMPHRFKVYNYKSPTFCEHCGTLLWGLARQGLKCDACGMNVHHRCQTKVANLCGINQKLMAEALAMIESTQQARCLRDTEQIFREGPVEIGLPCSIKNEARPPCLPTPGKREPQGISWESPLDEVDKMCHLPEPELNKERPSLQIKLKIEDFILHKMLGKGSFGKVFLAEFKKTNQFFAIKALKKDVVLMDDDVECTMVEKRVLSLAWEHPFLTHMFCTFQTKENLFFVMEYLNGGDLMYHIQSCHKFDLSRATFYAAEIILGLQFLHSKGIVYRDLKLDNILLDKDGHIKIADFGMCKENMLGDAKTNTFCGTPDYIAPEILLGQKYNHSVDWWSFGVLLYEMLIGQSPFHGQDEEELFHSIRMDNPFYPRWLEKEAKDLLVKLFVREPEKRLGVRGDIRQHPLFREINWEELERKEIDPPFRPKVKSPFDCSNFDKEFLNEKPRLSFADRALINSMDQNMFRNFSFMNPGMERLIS

IC50 [nM]	Compound
40	CN(C)CCCOc1ccc(-c2cncc(C#N)c2Nc2cccc3[nH]ccc23)cn1 [Compound 356, 6′-[3-(dimethylamino)propoxy]-4-(1H-indol-4-ylamino)-3,3′-bipyridine-5-carbonitrile]
30	Cc1c(Nc2c(C#N)cncc2-c2ccc(OCCCN(C)C)nc2)ccc2[nH]ccc12 [Compound 357, 6′-[3-(dimethylamino)propoxy]-4-[(4-methyl-1H-indol-5-yl)amino]-3,3′-bipyridine-5-carbonitrile]
10	N#Cc1cncc(-c2cccc(O)c2)c1Nc1cccc2[nH]ccc12 [Compound 358, 5-(3-hydroxyphenyl)-4-(1H-indol-4-ylamino)nicotinonitrile]
20	N#Cc1cncc(-c2cc3cc(CN4CCNCC4)ccc3s2)c1Nc1cccc2[nH]ccc12 [Compound 359, 4-(1H-indol-4-ylamino)-5-[5-(piperazin-1-ylmethyl)-1-benzothien-2-yl]nicotinonitrile]
2	N#Cc1cncc(-c2cc3cc(CNC(=O)CCN)ccc3s2)c1Nc1cccc2[nH]ccc12 [Compound 360, N-({2-[5-cyano-4-(1H-indol-4-ylamino)pyridin-3-yl]-1-benzothien-5-yl}methyl)-b-alaninamide]
40	N#Cc1cncc(-c2ccc(NCCN3CCOCC3)nc2)c1Nc1cccc2[nH]ccc12 [Compound 361, 4-(1H-indol-4-ylamino)-6′-[(2-morpholin-4-ylethyl)amino]-3,3′-bipyridine-5-carbonitrile]
50	Cc1c(Nc2c(C#N)cncc2-c2ccc(NCCN3CCOCC3)nc2)ccc2[nH]ccc12 [Compound 362, 4-[(4-methyl-1H-indol-5-yl)amino]-6′-[(2-morpholin-4-ylethyl)amino]-3,3′bipyridine-5-carbonitrile]
20	Cc1c(Nc2c(C#N)cncc2-c2ccc(OCCN(C)C)cc2Cl)ccc2[nH]ccc12 [Compound 363, 5-{2-chloro-4-[2-(dimethylamino)ethoxy]phenyl}-4-[(4-methyl-1H-indol-5-yl)amino]nicotinonitrile]
10	COc1ccc(-c2cncc(C#N)c2Nc2cccc3[nH]ccc23)cc1OCCNCCCN1CCOCC1 [Compound 364, 4-(1H-indol-4-ylamino)-5-(4-methoxy-3-{2-[(3-morpholin-4-ylpropyl)amino]ethoxy}phenyl)nicotinonitrile]
4	COc1ccc(-c2cncc(C#N)c2Nc2cccc3[nH]ccc23)cc1OCCNCCCn1ccnc1 [Compound 365, 5-[3-(2-{[3-(1H-imidazol-1-yl)propyl]amino}ethoxy)-4-methoxyphenyl]-4-(1H-indol-4-ylamino)nicotinonitrile]
20	N#Cc1cncc(-c2cccc(OC[C@@H](N)Cc3ccccc3)c2)c1Nc1cccc2[nH]ccc12 [Compound 366, 5-(3-{[(2S)-2-amino-3-phenylpropyl]oxy}phenyl)-4-(1H-indol-4-ylamino)nicotinonitrile]
3	Cc1c(Nc2c(C#N)cncc2-c2cc3cc(CNCc4ccccc4)ccc3s2)ccc2[nH]ccc12 [Compound 367, 5-{5-[(benzylamino)methyl]-1-benzothien-2-yl}-4-[(4-methyl-1H-indol-5-yl)amino]nicotinonitrile]
10	CCCCN1CCN(CCOc2ccc(-c3cncc(C#N)c3Nc3ccc4[nH]ccc4c3C)cc2)CC1 [Compound 368, 5-{4-[2-(4-butylpiperazin-1-yl)ethoxy]phenyl}-4-[(4-methyl-1H-indol-5-yl)amino]nicotinonitrile]
40	N#Cc1cncc(-c2cc3cc(C4OCCCO4)ccc3o2)c1Nc1cccc2[nH]ccc12 [Compound 369, 5-[5-(1,3-dioxan-2-yl)-1-benzofuran-2-yl]-4-(1H-indol-4-ylamino)nicotinonitrile]
4	Cc1c(Nc2c(C#N)cncc2-c2cc3cc(C4OCCCO4)ccc3o2)ccc2[nH]ccc12 [Compound 370, 5-[5-(1,3-dioxan-2-yl)-1-benzofuran-2-yl]-4-[(4-methyl-1H-indol-5-yl)amino]nicotinonitrile]
30	COc1ccc(-c2cncc(C#N)c2Nc2ccc3[nH]ccc3c2C)c(Cl)c1 [Compound 371, 5-(2-chloro-4-methoxyphenyl)-4-[(4-methyl-1H-indol-5-yl)amino]nicotinonitrile]
7	COc1cc(-c2cncc(C#N)c2Nc2ccc3[nH]ccc3c2C)ccc1OCCCl [Compound 372, 5-[4-(2-chloroethoxy)-3-methoxyphenyl]-4-[(4-methyl-1H-indol-5-yl)amino]nicotinonitrile]
1000	N#Cc1cncc(-c2cc3ccccc3o2)c1Nc1ccc2[nH]ncc2c1 [Compound 373, 5-(1-benzofuran-2-yl)-4-(1H-indazol-5-ylamino)nicotinonitrile]
20	Cc1c(Nc2c(C#N)cncc2-c2ccc(O)cc2)ccc2[nH]ccc12 [Compound 374, 5-(4-hydroxyphenyl)-4-[(4-methyl-1H-indol-5-yl)amino]nicotinonitrile]

IC50 [nM]	Compound
150	COc1cccc(Cl)c1-c1cncc(C#N)c1Nc1ccc2[nH]ccc2c1C [Compound 375, 5-(2-chloro-6-methoxyphenyl)-4-[(4-methyl-1H-indol-5-yl)amino]nicotinonitrile]
20	COc1cc(-c2cncc(C#N)c2Nc2ccc3[nH]ccc3c2C)ccc1OCCN1CCCCC1 [Compound 376, 5-[3-methoxy-4-(2-piperidin-1-ylethoxy)phenyl]-4-[(4-methyl-1H-indol-5-yl)amino]nicotinonitrile]
10	COc1cc(-c2cncc(C#N)c2Nc2ccc3[nH]ccc3c2C)ccc1OCCN1CCN(C)CC1 [Compound 377, 5-{3-methoxy-4-[2-(4-methylpiperazin-1-yl)ethoxy]phenyl}-4-[(4-methyl-1H-indol-5-yl)amino]nicotinonitrile]
30	COc1cc(-c2cncc(C#N)c2Nc2ccc3[nH]ccc3c2C)ccc1OCCN1CCOCC1 [Compound 378, 5-[3-methoxy-4-(2-morpholin-4-ylethoxy)phenyl]-4-[(4-methyl-1H-indol-5-yl)amino]nicotinonitrile]
2530	COc1ccc(-c2cncc(C#N)c2Nc2ccc3[nH]ncc3c2)cc1OC [Compound 379, 5-(3,4-dimethoxyphenyl)-4-(1H-indazol-5-ylamino)nicotinonitrile]
50	Cc1c(Nc2c(C#N)cncc2-c2cccc(Cl)c2Cl)ccc2[nH]ccc12 [Compound 380, 5-(2,3-dichlorophenyl)-4-[(4-methyl-1H-indol-5-yl)amino]nicotinonitrile]
20	Cc1c(Nc2c(C#N)cncc2-c2ccc(Br)cc2F)ccc2[nH]ccc12 [Compound 381, 5-(4-bromo-2-fluorophenyl)-4-[(4-methyl-1H-indol-5-yl)amino]nicotinonitrile]
6	Cc1c(Nc2c(C#N)cncc2-c2cc3cc(CN(C)C)ccc3o2)ccc2[nH]ccc12 [Compound 382, 5-{5-[(dimethylamino)methyl]-1-benzofuran-2-yl}-4-[(4-methyl-1H-indol-5-yl)amino]nicotinonitrile]
2	Cc1c(Nc2c(C#N)cncc2-c2cc3cc(CNCCO)ccc3o2)ccc2[nH]ccc12 [Compound 383, 5-(5-{[(2-hydroxyethyl)amino]methyl}-1-benzofuran-2-yl)-4-[(4-methyl-1H-indol-5-yl)amino]nicotinonitrile]
2	Cc1c(Nc2c(C#N)cncc2-c2cc3cc(CNCCCO)ccc3o2)ccc2[nH]ccc12 [Compound 384, 5-(5-{[(3-hydroxypropyl)amino]methyl}-1-benzofuran-2-yl)-4-[(4-methyl-1H-indol-5-yl)amino]nicotinonitrile]
2	Cc1c(Nc2c(C#N)cncc2-c2cc3cc(CNCC(O)CO)ccc3o2)ccc2[nH]ccc12 (stereo not shown) [Compound 385, 5-(5-{[(2,3-dihydroxypropyl)amino]methyl}-1-benzofuran-2-yl)-4-[(4-methyl-1H-indol-5-yl)amino]nicotinonitrile]
5	Cc1c(Nc2c(C#N)cncc2-c2cc3cc(CN(C)CC(O)CO)ccc3o2)ccc2[nH]ccc12 (stereo not shown) [Compound 386, 5-(5-{[(2,3-dihydroxypropyl)(methyl)amino]methyl}-1-benzofuran-2-yl)-4-[(4-methyl-1H-indol-5-yl)amino]nicotinonitrile]
13	Cc1c(Nc2c(C#N)cncc2-c2cc3cc(CN4CCOCC4)ccc3o2)ccc2[nH]ccc12 [Compound 388, 4-[(4-methyl-1H-indol-5-yl)amino]-5-[5-(morpholin-4-ylmethyl)-1-benzofuran-2-yl]nicotinonitrile]
3	Cc1c(Nc2c(C#N)cncc2-c2cc3cc(CN4CCCC4)ccc3o2)ccc2[nH]ccc12 [Compound 389, 4-[(4-methyl-1H-indol-5-yl)amino]-5-[5-(pyrrolidin-1-ylmethyl)-1-benzofuran-2-yl]nicotinonitrile]
1	Cc1c(Nc2c(C#N)cncc2-c2cc3cc(CNCCN4CCCC4)ccc3o2)ccc2[nH]ccc12 [Compound 390, 4-[(4-methyl-1H-indol-5-yl)amino]-5-(5-{[(2-pyrrolidin-1-ylethyl)amino]methyl}-1-benzofuran-2-yl)nicotinonitrile]
1	Cc1c(Nc2c(C#N)cncc2-c2cc3cc(CNCC4CCN(C)CC4)ccc3o2)ccc2[nH]ccc12 [Compound 391, 4-[(4-methyl-1H-indol-5-yl)amino]-5-[5-({[(1-methylpiperidin-4-yl)methyl]amino}methyl)-1-benzofuran-2-yl]nicotinonitrile]
5	Cc1c(Nc2c(C#N)cncc2-c2cc3cc(CN4CCC(CO)CC4)ccc3o2)ccc2[nH]ccc12 [Compound 392, 5-(5-{[4-(hydroxymethyl)piperidin-1-yl]methyl}-1-benzofuran-2-yl)-4-[(4-methyl-1H-indol-5-yl)amino]nicotinonitrile]
1	Cc1c(Nc2c(C#N)cncc2-c2cc3cc(CN4CCC(N5CCCC5)CC4)ccc3o2)ccc2[nH]ccc12 [Compound 393, 4-[(4-methyl-1H-indol-5-yl)amino]-5-{5-[(4-pyrrolidin-1-ylpiperidin-1-yl)methyl]-1-benzofuran-2-yl}nicotinonitrile]

From US7781591B2, “Substituted 3-cyanopyridines as protein kinase inhibitors” (Wyeth LLC, priority 2006, dated 2010)
